The source of these data is US20240116985A1, “STAPLED PEPTIDES AND METHODS THEREOF” (priority 2020, published 2024).

The target in the assay is T1, full-length beta-Catenin (Uniprot ID P35222) (Homo sapiens, UniProt P35222).
T1 construct: 10 nM full-length beta-Catenin (Uniprot ID P35222)
T1 sequence (P35222 1-781): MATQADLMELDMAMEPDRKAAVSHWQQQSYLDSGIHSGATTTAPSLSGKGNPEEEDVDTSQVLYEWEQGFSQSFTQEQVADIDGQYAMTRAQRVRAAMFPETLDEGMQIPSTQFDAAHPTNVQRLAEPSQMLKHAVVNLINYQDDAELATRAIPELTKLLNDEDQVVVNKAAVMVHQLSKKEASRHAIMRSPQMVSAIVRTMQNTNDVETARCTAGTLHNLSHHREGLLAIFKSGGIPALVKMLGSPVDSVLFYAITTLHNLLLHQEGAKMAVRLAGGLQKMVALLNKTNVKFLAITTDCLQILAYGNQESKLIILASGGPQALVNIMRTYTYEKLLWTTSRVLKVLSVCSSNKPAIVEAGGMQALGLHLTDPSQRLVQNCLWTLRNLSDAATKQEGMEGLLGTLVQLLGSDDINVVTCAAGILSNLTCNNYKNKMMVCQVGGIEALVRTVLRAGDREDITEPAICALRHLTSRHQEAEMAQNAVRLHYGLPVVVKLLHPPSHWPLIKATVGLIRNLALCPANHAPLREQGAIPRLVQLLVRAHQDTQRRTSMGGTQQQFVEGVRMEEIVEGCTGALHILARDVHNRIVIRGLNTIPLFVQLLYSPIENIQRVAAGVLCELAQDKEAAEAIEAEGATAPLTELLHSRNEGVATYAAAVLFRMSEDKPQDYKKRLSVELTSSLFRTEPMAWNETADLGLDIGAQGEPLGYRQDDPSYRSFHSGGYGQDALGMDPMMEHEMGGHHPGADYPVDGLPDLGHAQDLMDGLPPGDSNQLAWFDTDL
Put plainly: Fluorescence polarization IC50 (beta-catenin / 5FAM-TCF4 10-53 competition). In kind it is binding. The following applies: read-out: beta-Catenin FP IC50.

Where two headings read alike, the source gives them in different places. Non-standard residues stand in square brackets, D forms with d. Residues, ends and D or L forms follow the SMILES beside them. Bta = N[C@@H](Cc1csc2ccccc12)C(=O)O; tBuAla = CC(C)(C)C[C@H](N)C(=O)O; 3Thi = N[C@@H](Cc1ccsc1)C(=O)O; αMeP = C[C@@]1(C(=O)O)CCCN1; Aib = CC(C)(N)C(=O)O

Broadly, the IC50 is the midpoint of a concentration-inhibition curve. With `CC(=O)N1CCC[C@]12CC=CCCCC1(CCCC=CCCCOC(=O)N3CC[C@@](C(=O)N[C@@H](Cc4ccsc4)C(=O)N[C@@H](Cc4csc5ccccc45)C(=O)NC(CCCCNC(=O)c4ccc5c(c4)B(O)OC5)C(N)=O)(C3)NC(=O)[C@H](CC(C)C)NC(=O)[C@H](Cc3ccccc3)NC(=O)[C@H](C)NC(=O)[C@H](C)NC(=O)[C@H](CN(CC(=O)O)CC(F)(F)F)NC(=O)[C@H](CC(=O)O)NC1=O)NC(=O)[C@H](CC(C)(C)C)NC(=O)[C@H](CC(=O)O)NC2=O` (stereo partly drawn) [I-2186, Ac-PL3-Asp-Npg-B5-Asp-TfeGA-Ala-Ala-Phe-Leu-PyrS2-3Thi-BztA-BnBoroleK-NH2], the IC50 came out at 0.459 µM.
For `CC(=O)N1CCC[C@]12CC=CCCCC1(CCCC=CCCCOC(=O)N3CC[C@@](C(=O)N[C@@H](Cc4ccsc4)C(=O)N[C@@H](Cc4csc5ccccc45)C(=O)N[C@@H](CC(C)(C)C)C(N)=O)(C3)NC(=O)[C@H](CC(C)C)NC(=O)[C@H](Cc3ccccc3)NC(=O)[C@H](C)NC(=O)[C@H](CC(=O)N(C)C)NC(=O)[C@H](Cc3cccc(C(=O)O)c3)NC(=O)[C@H](CC(=O)O)NC1=O)NC(=O)[C@H](CC(C)(C)C)NC(=O)[C@H](CC(=O)O)NC2=O` (stereo partly drawn) [I-2196, Ac-PL3-Asp-Npg-B5-Asp-3COOHF-Me2Asn-Ala-Phe-Leu-PyrS2-3Thi-BztA-Npg-NH2], the IC50 (fluorescence polarization) is 0.041 µM.
On the same count and under the same terms, in the case of `CC(=O)N1CCC[C@]12CC=CCCCC1(CCCC=CCCOC(=O)N3CC[C@@](C(=O)N[C@@H](Cc4ccsc4)C(=O)N[C@@H](Cc4csc5ccccc45)C(=O)N[C@@H](CCC(N)=O)C(N)=O)(C3)NC(=O)[C@H](CC(N)=O)NC(=O)[C@H](Cc3ccccc3)NC(=O)[C@H](C)NC(=O)[C@H](C)NC(=O)[C@H]([C@@H](C)O)NC(=O)[C@H](CC(N)=O)NC1=O)NC(=O)[C@H](CC(C)(C)C)NC(=O)[C@H](CC(=O)O)NC2=O` (stereo partly drawn) [I-2197, Ac-PL3-Asp-Npg-B5-Asn-Thr-Ala-Ala-Phe-Asn-PyrS1-3Thi-BztA-Gln-NH2] it was 2.45 µM; in that of `CC(=O)N1CCC[C@]12CC=CCCCC1(CCCC=CCCOC(=O)N3CC[C@@](C(=O)N[C@@H](Cc4ccsc4)C(=O)N[C@@H](Cc4csc5ccccc45)C(=O)N[C@@H](CCC(N)=O)C(N)=O)(C3)NC(=O)[C@H](CC(N)=O)NC(=O)[C@H](Cc3ccccc3)NC(=O)[C@H](C)NC(=O)[C@H](C)NC(=O)[C@H]([C@@H](C)O)NC(=O)[C@H](CC(N)=O)NC1=O)NC(=O)[C@H](CC(C)(C)C)NC(=O)[C@H](CC(=O)O)NC2=O` (stereo partly drawn) [I-2198, Ac-PL3-Asp-Npg-B5-Asn-Thr-Ala-Ala-Phe-Asn-PyrS1-3Thi-BztA-Gln-NH2], 1.47 µM; in that of `CC(=O)N1CCC[C@]12CC=CCCCC1(CCCC=CCCCCOC(=O)N3CC[C@@](C(=O)N[C@@H](Cc4ccsc4)C(=O)N[C@@H](Cc4csc5ccccc45)C(=O)N[C@@H](CCC(N)=O)C(N)=O)(C3)NC(=O)[C@H](CC(N)=O)NC(=O)[C@H](Cc3ccccc3)NC(=O)[C@H](C)NC(=O)[C@H](C)NC(=O)[C@H]([C@@H](C)O)NC(=O)[C@H](CC(N)=O)NC1=O)NC(=O)[C@H](CC(C)(C)C)NC(=O)[C@H](CC(=O)O)NC2=O` (stereo partly drawn) [I-2199, Ac-PL3-Asp-Npg-B5-Asn-Thr-Ala-Ala-Phe-Asn-PyrS3-3Thi-BztA-Gln-NH2], 0.927 µM.
Still for that read-out and setting: then `CC(=O)N1CCC[C@]12CC=CCCCC1(CCCC=CCCCCC[C@@](C)(C(=O)N[C@@H](Cc3ccsc3)C(=O)N[C@@H](Cc3csc4ccccc34)C(=O)N[C@@H](CCC(N)=O)C(N)=O)NC(=O)[C@H](CC(N)=O)NC(=O)[C@H](Cc3ccccc3)NC(=O)[C@H](C)NC(=O)[C@H](C)NC(=O)[C@H]([C@@H](C)O)NC(=O)[C@H](CC(N)=O)NC1=O)NC(=O)[C@H](CC(C)(C)C)NC(=O)[C@H](CC(=O)O)NC2=O` (stereo partly drawn) [I-2200, Ac-PL3-Asp-Npg-B5-Asn-Thr-Ala-Ala-Phe-Asn-S7-3Thi-BztA-Gln-NH2], with 8.4 µM; and `CC(=O)N1CCC[C@]12CC=CCCCC1(CCCC=CCCCOC(=O)N3CC[C@@](C(=O)N[C@@H](Cc4ccsc4)C(=O)N[C@@H](Cc4csc5ccccc45)C(=O)N[C@@H](C)C(N)=O)(C3)NC(=O)[C@H](CC(C)C)NC(=O)[C@H](Cc3ccccc3)NC(=O)[C@H](C)NC(=O)C(C)(C)NC(=O)[C@H](Cc3cc(C(=O)O)cc(C(F)(F)F)c3)NC(=O)[C@H](CC(=O)O)NC1=O)NC(=O)[C@H](CC(C)(C)C)NC(=O)[C@H](CC(=O)O)NC2=O` (stereo partly drawn) [I-2212, Ac-PL3-Asp-Npg-B5-Asp-5F3Me3COOHF-Aib-Ala-Phe-Leu-PyrS2-3Thi-BztA-Ala-NH2], with 0.06 µM; and `CC(=O)N1CCC[C@]12CC=CCCCC1(CCCC=CCOC(=O)N(C)CC[C@@](C)(C(=O)N[C@@H](Cc3ccsc3)C(=O)N[C@@H](Cc3csc4ccccc34)C(=O)N[C@@H](CCC(N)=O)C(N)=O)NC(=O)[C@H](CC(N)=O)NC(=O)[C@H](Cc3ccccc3)NC(=O)[C@H](C)NC(=O)[C@H](C)NC(=O)[C@H]([C@@H](C)O)NC(=O)[C@H](CC(N)=O)NC1=O)NC(=O)[C@H](CC(C)(C)C)NC(=O)[C@H](CC(=O)O)NC2=O` (stereo partly drawn) [I-2213, Ac-PL3-Asp-Npg-B5-Asn-Thr-Ala-Ala-Phe-Asn-SdN-3Thi-BztA-Gln-NH2], with 5.25 µM.
Same read-out and setting: then `CC(=O)N1CCC[C@]12CC=CCCCC1(CCCC=CCCCOC(=O)N3CC[C@@](C(=O)N[C@@H](Cc4cccc(-c5ccccc5)c4)C(=O)N[C@@H](Cc4ccccc4)C(=O)N[C@@H](CCC(N)=O)C(N)=O)(C3)NC(=O)[C@H](CC(C)C)NC(=O)[C@H](Cc3ccccc3)NC(=O)[C@H](C)NC(=O)[C@H](C)NC(=O)[C@H](Cc3cccc(C(=O)O)c3)NC(=O)[C@H](CC(=O)O)NC1=O)NC(=O)[C@H](CC(C)(C)C)NC(=O)[C@H](CC(=O)O)NC2=O` (stereo partly drawn) [I-2214, Ac-PL3-Asp-Npg-B5-Asp-3COOHF-Ala-Ala-Phe-Leu-PyrS2-[Ph]-3SF-Phe-Gln-NH2], with 1.86 µM; and `CC(=O)N1CCC[C@]12CC=CCCCC1(CCCC=CCCCOC(=O)N3CC[C@@](C(=O)N[C@@H](Cc4cccc(C5CC5)c4)C(=O)N[C@@H](Cc4ccccc4)C(=O)N[C@@H](CCC(N)=O)C(N)=O)(C3)NC(=O)[C@H](CC(C)C)NC(=O)[C@H](Cc3ccccc3)NC(=O)[C@H](C)NC(=O)[C@H](C)NC(=O)[C@H](Cc3cccc(C(=O)O)c3)NC(=O)[C@H](CC(=O)O)NC1=O)NC(=O)[C@H](CC(C)(C)C)NC(=O)[C@H](CC(=O)O)NC2=O` (stereo partly drawn) [I-2215, Ac-PL3-Asp-Npg-B5-Asp-3COOHF-Ala-Ala-Phe-Leu-PyrS2-[CyPr]-3SF-Phe-Gln-NH2], with 1.54 µM; and `CC(=O)N1CCC[C@@]1(C)C(=O)N[C@@H](CC(=O)O)C(=O)N[C@@H](CC(C)(C)C)C(=O)NC(C)(C)C(=O)N[C@@H](CC(=O)O)C(=O)N[C@@H](CC(=O)O)C(=O)N[C@@H](C)C(=O)N[C@@H](C)C(=O)N[C@@H](Cc1ccccc1)C(=O)N[C@@H](CCC(N)=O)C(=O)NC(C)(C)C(=O)N[C@@H](Cc1ccsc1)C(=O)N[C@@H](Cc1csc2ccccc12)C(=O)N[C@@H](Cc1c[nH]cn1)C(N)=O` [I-2228, Ac-MePro-Asp-Npg-Aib-Asp-Asp-Ala-Ala-Phe-Gln-Aib-3thi-BztA-His-NH2] (Ac-[αMeP]D[tBuAla][Aib]DDAAFQ[Aib][3Thi][Bta]H-NH2), with 2.14 µM.
Turning to `CC(=O)N1CCC[C@]12CC=CCCCC1(CCCC=CCCCOC(=O)N3CC[C@@](C(=O)N[C@@H](Cc4ccsc4)C(=O)N[C@@H](Cc4csc5ccccc45)C(=O)N[C@@H](Cc4c[nH]cn4)C(=O)N[C@@H](CCCCN)C(N)=O)(C3)NC(=O)[C@H](CCC(N)=O)NC(=O)[C@H](Cc3ccccc3)NC(=O)[C@H](C)NC(=O)[C@H](C)NC(=O)[C@H](CC(=O)O)NC(=O)[C@H](CC(=O)O)NC1=O)NC(=O)[C@H](CC(C)(C)C)NC(=O)[C@H](CC(=O)O)NC2=O` (stereo partly drawn) [I-2229, Ac-PL3-Asp-Npg-B5-Asp-Asp-Ala-Ala-Phe-Gln-PyrS2-3thi-BztA-His-Lys-NH2], the IC50 (fluorescence polarization) was 0.006 µM.
Same read-out and setting: in the case of `CC(=O)N1CCC[C@]12CC=CCCCC1(CCCC=CCCCOC(=O)N3CC[C@@](C(=O)N[C@@H](Cc4ccsc4)C(=O)N[C@@H](Cc4csc5ccccc45)C(=O)N[C@@H](Cc4c[nH]cn4)C(=O)N[C@@H](CCCCN)C(N)=O)(C3)NC(=O)[C@H](CCC(N)=O)NC(=O)[C@H](Cc3ccccc3)NC(=O)[C@H](C)NC(=O)[C@H](C)NC(=O)[C@H](CC(=O)O)NC(=O)[C@H](CC(=O)O)NC1=O)NC(=O)[C@H](CC(C)(C)C)NC(=O)[C@H](CC(=O)O)NC2=O` (stereo partly drawn) [I-2230, Ac-PL3-Asp-Npg-B5-Asp-Asp-Ala-Ala-Phe-Gln-PyrS2-3thi-BztA-His-Lys-NH2] it was 0.008 µM; in that of `CC(=O)N1CCC[C@@]1(C)C(=O)N[C@@H](CC(=O)O)C(=O)N[C@@H](CC(C)(C)C)C(=O)NC(C)(C)C(=O)N[C@@H](CC(=O)O)C(=O)N[C@@H](CC(=O)O)C(=O)N[C@@H](C)C(=O)N[C@@H](C)C(=O)N[C@@H](Cc1ccccc1)C(=O)N[C@@H](CCC(N)=O)C(=O)NC(C)(C)C(=O)N[C@@H](Cc1ccsc1)C(=O)N[C@@H](Cc1csc2ccccc12)C(=O)N[C@@H](Cc1c[nH]cn1)C(=O)N[C@@H](CCCCN)C(N)=O` [I-2231, Ac-MePro-Asp-Npg-Aib-Asp-Asp-Ala-Ala-Phe-Gln-Aib-3thi-BztA-His-Lys-NH2] (Ac-[αMeP]D[tBuAla][Aib]DDAAFQ[Aib][3Thi][Bta]HK-NH2), 5.19 µM.
